{
  "source": "patent US20260256786A1",
  "about": "(United Therapeutics Corporation, priority 2020, published 2026)",
  "key": {"[1]": {"test": "Pharmacokinetics of insufflated ImaT powder in rat: lung sections", "type": "in vivo, Sprague Dawley rats", "conditions": "for concentration at 0.08 h / concentration at 1 h / concentration at 4 h / concentration at 8 h: male, Sprague Dawley, rat, lung, inhaled, 4 mg/kg", "method": "Lungs were also harvested at specified time points (see Table 4). […] Lungs werethen harvested. The left lobe was sectioned into three parts; upper, middle and bottom. Each section was separated into two equal pieces. Each piece was weighed and individually placed in a properly labeled tube. Lungs samples were snap-frozen and stored at −80° C. Lung samples were then homogenized in PBS, 0.1% Triton X-100 (200 mg of tissue/mL). The homogenate samples were stored at −80° C."}, "[2]": {"conditions": "ImaT 4 mg/kg insufflation, 24 h time point", "quoted_text": "After dosing, blood samples and lungs were collected at specific time points over a period of 24 hours.\nThe rats were anesthetized with a mixture of 1.5 to 3% isoflurane USP (Abbott Laboratories, Montreal Canada) in 100% oxygen, and placed on a homoeothermic heating pad to maintain body temperature at 37±1° C.\nFor all groups, the test article was insufflated using an automated insufflation device. The insufflator tip was inserted just above the bifurcation of the trachea and the discharge of powder was timed to the inhalation cycle of the animal. After dosing, the animals were allowed to recover from anesthesia under surveillance before being returned to their respective cages.\nBlood samples of 0.5 mL were collected from the jugular vein at specified time points (see Table 4).\nBlood samples were centrifuged (3000 r.p.m. for 10 min., 2-8° C.) and plasma was transferred into an Eppendorf tube labeled with the Study Number, animal I.D., dose group and time point.\nFor each group, data in this report is expressed as mean±S.E.M."}, "[3]": {"conditions": "section 1 (homogenate), read-out: Lung conc, Section 1"}, "[4]": {"conditions": "section 2 (homogenate), read-out: Lung conc, Section 2"}, "[5]": {"conditions": "section 3 (homogenate), read-out: Lung conc, Section 3"}, "[6]": {"conditions": "section 4 (homogenate), read-out: Lung conc, Section 4"}, "[7]": {"conditions": "section 5 (homogenate), read-out: Lung conc, Section 5"}, "[8]": {"conditions": "section 6 (homogenate), read-out: Lung conc, Section 6"}},
  "note": "Like-named read-outs stand apart in the source and are kept apart here.",
  "data": [
    {"smiles": "Cc1ccc(NC(=O)c2ccc(CN3CCN(C)CC3)cc2)cc1Nc1nccc(-c2cccnc2)n1", "note": "[Imatinib, 4-[(4-methylpiperazin-1-yl)methyl]-N-[4-methyl-3-[(4-pyridin-3-ylpyrimidin-2-yl)amino]phenyl]benzamide]", "values": [
      {"measurement": "Imatinib concentrations in the lung", "setting": "[1]; ImaT 4 mg/kg insufflation, 24 hour time point", "result": "below the limit of detection"},
      {"measurement": "concentration at 0.08 h", "setting": "[1]; [3]", "result": 201, "unit": "ng/mL"},
      {"measurement": "concentration at 1 h", "setting": "[1]; [3]", "result": 260, "unit": "ng/mL"},
      {"measurement": "concentration at 4 h", "setting": "[1]; [3]", "result": 62, "unit": "ng/mL"},
      {"measurement": "concentration at 8 h", "setting": "[1]; [3]", "result": 27.2, "unit": "ng/mL"},
      {"measurement": "concentration at 0.08 h", "setting": "[1]; [4]", "result": 1530, "unit": "ng/mL"},
      {"measurement": "concentration at 1 h", "setting": "[1]; [4]", "result": 638, "unit": "ng/mL"},
      {"measurement": "concentration at 4 h", "setting": "[1]; [4]", "result": 51, "unit": "ng/mL"},
      {"measurement": "concentration at 8 h", "setting": "[1]; [4]", "result": 24.4, "unit": "ng/mL"},
      {"measurement": "concentration at 0.08 h", "setting": "[1]; [5]", "result": 888, "unit": "ng/mL"},
      {"measurement": "concentration at 1 h", "setting": "[1]; [5]", "result": 307, "unit": "ng/mL"},
      {"measurement": "concentration at 4 h", "setting": "[1]; [5]", "result": 55.9, "unit": "ng/mL"},
      {"measurement": "concentration at 8 h", "setting": "[1]; [5]", "result": 21.1, "unit": "ng/mL"},
      {"measurement": "concentration at 0.08 h", "setting": "[1]; [6]", "result": 3000, "unit": "ng/mL"},
      {"measurement": "concentration at 1 h", "setting": "[1]; [6]", "result": 510, "unit": "ng/mL"},
      {"measurement": "concentration at 4 h", "setting": "[1]; [6]", "result": 68.4, "unit": "ng/mL"},
      {"measurement": "concentration at 8 h", "setting": "[1]; [6]", "result": 24.6, "unit": "ng/mL"},
      {"measurement": "concentration at 0.08 h", "setting": "[1]; [7]", "result": 2580, "unit": "ng/mL"},
      {"measurement": "concentration at 1 h", "setting": "[1]; [7]", "result": 196, "unit": "ng/mL"},
      {"measurement": "concentration at 4 h", "setting": "[1]; [7]", "result": 69.5, "unit": "ng/mL"},
      {"measurement": "concentration at 8 h", "setting": "[1]; [7]", "result": 22.1, "unit": "ng/mL"},
      {"measurement": "concentration at 0.08 h", "setting": "[1]; [8]", "result": 4740, "unit": "ng/mL"},
      {"measurement": "concentration at 1 h", "setting": "[1]; [8]", "result": 314, "unit": "ng/mL"},
      {"measurement": "concentration at 4 h", "setting": "[1]; [8]", "result": 66.3, "unit": "ng/mL"},
      {"measurement": "concentration at 8 h", "setting": "[1]; [8]", "result": 24.6, "unit": "ng/mL"},
      {"measurement": "Time of maximal lung concentration of Imatinib", "setting": "[1]; post-inhalation of ImaT", "result": 5, "unit": "min"},
      {"measurement": "Plasma concentration of Imatinib", "setting": "[2]", "result": "below the limit of detection"}
    ]}
  ]
}
